Test results as given in publication PMC11528023, “Transport mechanism and structural pharmacology of human urate transporter URAT1” (Cell Research, 2024).

Target: T1, URAT1 F449A (Homo sapiens, UniProt Q96S37, F449A)
T1 construct: expressed in transfected cells; host or cells: HEK293 cells (ATCC, CRL-3216), transient transfection
T1 sequence (Q96S37 1-553 F449A): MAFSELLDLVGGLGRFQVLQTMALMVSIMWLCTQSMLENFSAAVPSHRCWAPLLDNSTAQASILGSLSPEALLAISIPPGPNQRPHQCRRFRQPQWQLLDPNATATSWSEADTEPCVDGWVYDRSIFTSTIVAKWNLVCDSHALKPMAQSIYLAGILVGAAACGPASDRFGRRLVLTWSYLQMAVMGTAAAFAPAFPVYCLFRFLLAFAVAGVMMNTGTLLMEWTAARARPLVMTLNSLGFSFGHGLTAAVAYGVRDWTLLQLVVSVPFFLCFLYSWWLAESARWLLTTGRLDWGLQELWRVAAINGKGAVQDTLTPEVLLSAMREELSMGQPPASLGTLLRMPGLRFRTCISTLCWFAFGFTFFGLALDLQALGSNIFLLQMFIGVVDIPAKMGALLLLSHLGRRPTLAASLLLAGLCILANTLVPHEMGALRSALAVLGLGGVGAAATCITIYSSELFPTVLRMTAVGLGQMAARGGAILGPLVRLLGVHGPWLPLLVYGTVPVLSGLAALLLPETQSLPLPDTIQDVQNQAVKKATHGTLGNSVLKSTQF
Format: cell-based
Conditions: dose-response of 14C-urate uptake, Fig. 6c
Source text: Fig. 6 Dotinurad inhibition and the mechanism of URAT1 transport. a Structure of dotinurad-bound URAT1. Detailed interactions between dotinurad and URAT1 are shown on the right. b Dotinurad-binding pocket, depicted in a top view looking down from the extracellular side. c Dose-response curves of URAT1 variants with mutations in the dotinurad-binding site, using the same buffer as defined in Fig. 1 legend. Data are shown as mean ± SD; n = 3 biological replicates. d Comparison between the dotinurad-bound and apo structures. e Schematic diagram of URAT1 importing urate. […]
Human embryonic kidney (HEK) 293 cells (ATCC, CRL-3216) were seeded onto poly(D-lysine)-coated 96-well plates at a density of 0.3 × 10^5 cells per well and cultured at 37 °C until reaching approximately 70%–80% confluence. […] The cells were then lysed in 0.1 M NaOH, and the lysed samples were added to scintillation liquid to measure radioactivity using a PerkinElmer Microbeta2 counter.
For dose-response assays, the cells were incubated with urate and increasing concentrations of inhibitors. […] Nonspecific uptake was measured in each plate in non-transfected cells, and this value was subtracted from the total uptake to obtain the URAT1-specific uptake. To compare the uptake signals among URAT1 variants, the mVenus fluorescence intensity of each construct was measured using fluorescence-detection size-exclusion chromatography[49] […]

In the case of O=C(c1cc(Cl)c(O)c(Cl)c1)N1CS(=O)(=O)c2ccccc21 [dotinurad], the “Effect of F449A mutation on drug sensitivity” value is reported as “completely eliminating URAT1’s sensitivity”.
